In this assay the test system is rat aorta smooth muscle cells (mainly M2, lesser M3). The assay can be described thus: cAMP level in primary culture of rat aorta smooth muscle cells. It counts as cell-based. The method, then:
Effects of compounds 6A and 7A on both cAMP and IPX levels were also measured in primary cultures of rat aorta smooth muscle cells that express mainly M2 and to a lesser extent M3 receptors (FIG. 6). […] Receptor expression levels are far lower in tested native tissues than in transfected cell lines and vary among tissues, being highest in the striatum and lowest in the submaxillary gland. Relative expression levels of G-proteins are also known to vary among tissues and cell lines. Thus, it is great to see that the pharmacological profile of the new compounds is conserved despite these variations.
Cell culture and membrane preparation: Chinese hamster ovary (CHO) cells stably transfected with the genes of individual human variants of muscarinic receptors were purchased from Missouri S&T cDNA Resource Center (Rolla, Mo., USA). Fresh primary cell culture of smooth muscle cells (SMC) from rat aorta prepared as previously described was kindly provided by Dr. Lucie Bačáková. Primary culture of SMCs was grown to confluency in 75 cm^2 flasks in Dulbecco's modified Eagle's medium supplemented with 10% fetal bovine serum. Up to 6-times, 2 million of cells were sub-cultured. Cell cultures and crude membranes from CHO cells were prepared as described previously (Boulos et al., Chem Biol Drug Des 1-12, 2017). Cells were grown to confluency in 75 cm^2 flasks in Dulbecco's modified Eagle's medium supplemented with 10% fetal bovine serum and 2 million of cells were subcultured in 100 mm Petri dishes. Medium was supplemented with 5 mM butyrate for the last 24 hours of cultivation to increase receptor expression. When needed, cells were cultivated with pertussis toxin at a final concentration of 25 ng/ml for the 24 hours. Cells were detached by mild trypsinization on day 5 after subculture. Detached cells were washed twice in 50 ml of phosphate-buffered saline and 3 min centrifugation at 250×g. Washed cells were suspended in 20 ml of ice-cold incubation medium (100 mM NaCl, 20 mM Na-HEPES, 10 mM MgCl2, pH=7.4) supplemented with 10 mM EDTA and homogenized on ice by two 30 sec strokes using Polytron homogenizer (Ultra-Turrax; Janke & Kunkel GmbH & Co. KG, IKA-Labortechnik, Staufen, Germany) with a 30-sec pause between strokes. Cell homogenates were centrifuged for 30 min at 30,000×g. Supernatants were discarded, pellets suspended in fresh incubation medium, incubated on ice for 30 minutes and centrifuged again. Resulting membrane pellets were kept at −80° C. until assayed within 10 weeks at a maximum.
Measurements of the production of cAMP and inositol phosphates: Levels of second messengers cAMP and inositol phosphates were determined in radiochemical chromatography assays as described previously. To determine level of cAMP, cells in suspension were pre-incubated for 1 h with 0.4 μM [^3H]adenine, washed, and incubated for 10 min in the presence of isobutylmethylxanthine and 10 μM forskolin. […] Incubation was ended by addition of 0.2 ml of 2.5 M HCl to the samples. Samples were applied to alumina columns (1.5 g of alumina per column), washed with 2 ml ammonium acetate (pH=7.0) and eluted from columns with 4 ml ammonium acetate and measured by liquid scintillation spectrometry. […] For this purpose, new CHO cell lines stably expressing promiscuous G15 G-protein and M2 or M4 receptor were generated by transfection with pCMV/hygro vector and hygromycin selection. To determine the rate of formation of inositol phosphates IPX, suspended cells were pre-incubated with 0.1 μM [^3H]myo-inositol for 60 min, washed, and incubated with 10 mM LiCl for 15 min. […] The incubation was stopped by addition of 0.5 ml of chloroform methanol HCl mixture (2:1:0.1). […]

The values below come from patent US11591323B2, “Muscarinic agonists as non-steroidal and non-opioid analgesics and methods of use thereof” (Barry University, priority 2019, dated 2023).

Read-outs that look alike come from different tables or passages of the source.

As for `C[N+](C)(C)CCOC(N)=O` [carbachol, reference compound], the “Maximal inhibition of cAMP synthesis” value is “about 40%”. Further, for the setting “in words”, the cAMP level result is given as “transient decrease in cAMP level”.

With `C[N+]1(Cc2cccs2)CC=CCC1.[I-]` (centres unmarked) [Compound 7A, 1-methyl-1-[(thiophen-2-yl)methyl]-1,2,3,6-tetrahydropyridin-1-ium iodide], the “Maximal inhibition of cAMP synthesis” value is on record as “about 40%”. Further, where the note is “in words”, the “Maximal inhibition of cAMP synthesis” value is “the same as inhibition by carbachol” and the cAMP level result is “only inhibited cAMP synthesis”.

Take `C1=CCN(Cc2cccs2)CC1.Cl` [Compound 6A, 1-[(thiophen-2-yl)methyl]-1,2,3,6-tetrahydropyridin-1-ium chloride]: the “Maximal inhibition of cAMP synthesis” value is “about 40%”. Besides, where the note is “in words”, the “Maximal inhibition of cAMP synthesis” value is recorded as “the same as inhibition by carbachol” and the cAMP level entry is given as “only inhibited cAMP synthesis”.
